# Laboratory results as given in the supplement of paper PMC10307832.
# Columns and labels:
# Assay in all cases: relative viability (nuclei count vs DMSO), 5 days (fraction); higher = more cells survive
# GSK-J4 + Bortezomib = compound: CCOC(=O)CCNc1cc(N2CCc3ccccc3CC2)nc(-c2ccccn2)n1 [GSK-J4] + CC(C)C[C@H](NC(=O)[C@H](Cc1ccccc1)NC(=O)c1cnccn1)B(O)O [Bortezomib] (partner 0.002 µM)
# In short: (§1)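 Relative viability is defined as nuclei in treated wells over nuclei in vehicle wells. Duplicate plates were run and medians reported. Lung cancer cell lines in 1536-well plates were dosed by pin tool one day after seeding, with one drug or with a fixed anchor-drug dose plus five library-drug doses (not always all listed) in √10 steps, and nuclei were counted after 5 days.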
# AZ3146 + Foretinib = compound: CN1CCC(CC1)OC2=CC(=C(C=C2)NC3=NC=C4C(=N3)N(C(=O)N4C)C5CCCC5)OC [AZ3146] + COc1cc2c(Oc3ccc(NC(=O)C4(C(=O)Nc5ccc(F)cc5)CC4)cc3F)ccnc2cc1OCCCN1CCOCC1 [Foretinib] (partner 0.25 µM)
# In short: as §1
# AZ3146 + Trametinib = compound: CN1CCC(CC1)OC2=CC(=C(C=C2)NC3=NC=C4C(=N3)N(C(=O)N4C)C5CCCC5)OC [AZ3146] + CC(=O)Nc1cccc(-n2c(=O)n(C3CC3)c(=O)c3c(Nc4ccc(I)cc4F)n(C)c(=O)c(C)c32)c1 [Trametinib] (partner 0.02 µM)
# In short: as §1
# GSK-J4 + Dasatinib = compound: CCOC(=O)CCNc1cc(N2CCc3ccccc3CC2)nc(-c2ccccn2)n1 [GSK-J4] + Cc1nc(Nc2ncc(C(=O)Nc3c(C)cccc3Cl)s2)cc(N2CCN(CCO)CC2)n1 [Dasatinib] (partner 0.075 µM)
# In short: as §1
Cell Line,relative viability (GSK-J4 + Bortezomib; first compound 0.5 µM),relative viability (GSK-J4 + Bortezomib; first compound 1.581 µM),relative viability (GSK-J4 + Bortezomib; first compound 5 µM),relative viability (GSK-J4 + Bortezomib; first compound 15.81 µM),relative viability (GSK-J4 + Bortezomib; first compound 50 µM),relative viability (AZ3146 + Foretinib; first compound 0.08 µM),relative viability (AZ3146 + Foretinib; first compound 0.253 µM),relative viability (AZ3146 + Foretinib; first compound 0.8 µM),relative viability (AZ3146 + Foretinib; first compound 2.53 µM),relative viability (AZ3146 + Foretinib; first compound 8 µM),relative viability (AZ3146 + Trametinib; first compound 0.08 µM),relative viability (AZ3146 + Trametinib; first compound 0.253 µM),relative viability (AZ3146 + Trametinib; first compound 0.8 µM),relative viability (AZ3146 + Trametinib; first compound 2.53 µM),relative viability (AZ3146 + Trametinib; first compound 8 µM),relative viability (GSK-J4 + Dasatinib; first compound 0.5 µM),relative viability (GSK-J4 + Dasatinib; first compound 1.581 µM),relative viability (GSK-J4 + Dasatinib; first compound 5 µM),relative viability (GSK-J4 + Dasatinib; first compound 15.81 µM),relative viability (GSK-J4 + Dasatinib; first compound 50 µM)
NCI-H460,1.02,0.888,1,1.04,0.985,1.01,1.06,0.92,0.874,0.312,0.132,0.134,0.0913,0.0867,0.107,0.524,0.445,0.471,0.37,0.363
NCI-H441,0.749,0.497,0.401,0.538,0.348,0.92,0.949,1.06,1,1.07,0.512,0.438,0.429,0.501,0.362,0.537,0.537,0.735,0.516,0.358
SK-LU-1,1.02,1.06,0.705,0.8,0.902,0.803,0.867,0.804,0.897,0.528,0.475,0.409,0.436,0.549,0.432,0.176,0.161,0.127,0.199,0.179
NCI-H2228,0.745,0.913,0.973,0.906,0.937,0.736,0.743,0.736,0.88,0.656,0.415,0.539,0.33,0.44,0.455,0.534,0.436,0.683,0.398,0.525
LCLC-97TM1,0.981,,0.393,0.449,0.526,0.936,0.96,0.879,0.942,0.806,0.268,0.2,0.157,0.184,0.223,0.596,0.724,0.951,0.825,0.555
NCI-H1993,1.18,1.24,1.19,0.878,0.812,0.866,0.776,0.771,0.834,0.834,0.562,0.508,0.472,0.519,0.469,0.613,0.649,0.716,0.52,0.43
NCI-H2087,0.789,0.763,,0.701,0.72,1.06,1.11,1.12,1.05,0.531,0.201,0.196,0.214,0.214,0.182,0.747,,0.725,0.694,0.645
COR-L23,0.944,0.815,,1.01,0.729,0.979,1.08,0.877,0.987,0.787,0.587,0.646,0.56,0.718,0.6,0.477,0.393,,0.409,0.413
NCI-H1355,1.23,1.04,1.11,1.16,1.16,0.974,0.968,0.936,1.04,1.05,0.441,0.429,0.435,0.435,0.439,0.749,0.654,0.342,0.538,0.675
RERF-LC-KJ,0.989,0.993,1.04,1.11,0.963,0.851,0.862,0.895,0.942,0.844,0.848,0.982,0.796,0.911,0.769,0.68,0.774,0.695,0.708,0.371
NCI-H727,0.934,,1.19,0.954,0.35,0.952,0.967,0.975,0.981,0.86,0.359,0.365,0.335,0.417,0.364,0.338,0.305,0.522,0.298,0.223
NCI-H1734,0.795,0.878,0.738,0.725,0.783,0.811,0.859,0.885,0.853,0.705,0.641,0.663,0.594,0.662,0.62,0.405,0.454,0.378,0.396,0.468
NCI-H2126,1.02,0.617,1.09,1.05,0.998,0.911,1.31,1.04,1.25,1.29,0.58,0.553,0.503,0.534,0.547,0.603,0.47,0.587,0.56,0.444
NCI-H23,0.987,,0.791,1.03,0.969,1.02,1.08,1.19,1.01,0.612,0.455,0.354,0.391,0.422,0.402,0.872,0.73,0.723,0.723,0.617
EPLC-272H,0.864,,1.01,0.851,0.936,,0.784,0.629,0.732,0.721,0.312,0.281,0.272,0.268,0.247,0.418,0.327,0.262,0.357,0.282
NCI-H2023,0.912,0.71,0.878,0.799,0.801,0.783,0.788,0.774,0.949,0.227,0.55,0.473,0.616,0.538,0.442,0.49,,0.529,0.48,0.428
NCI-H647,0.912,0.862,0.652,1.12,0.982,1.01,1.21,0.857,1.16,1.21,0.365,0.44,0.366,0.476,0.317,0.2,0.164,0.0733,0.285,0.131

Cell Line,relative viability (GSK-J4 + Bortezomib; first compound 0.5 µM),relative viability (GSK-J4 + Bortezomib; first compound 1.581 µM),relative viability (GSK-J4 + Bortezomib; first compound 5 µM),relative viability (GSK-J4 + Bortezomib; first compound 15.81 µM),relative viability (GSK-J4 + Bortezomib; first compound 50 µM),relative viability (AZ3146 + Foretinib; first compound 0.08 µM),relative viability (AZ3146 + Foretinib; first compound 0.253 µM),relative viability (AZ3146 + Foretinib; first compound 0.8 µM),relative viability (AZ3146 + Foretinib; first compound 2.53 µM),relative viability (AZ3146 + Foretinib; first compound 8 µM),relative viability (AZ3146 + Trametinib; first compound 0.08 µM),relative viability (AZ3146 + Trametinib; first compound 0.253 µM),relative viability (AZ3146 + Trametinib; first compound 0.8 µM),relative viability (AZ3146 + Trametinib; first compound 2.53 µM),relative viability (AZ3146 + Trametinib; first compound 8 µM),relative viability (GSK-J4 + Dasatinib; first compound 0.5 µM),relative viability (GSK-J4 + Dasatinib; first compound 1.581 µM),relative viability (GSK-J4 + Dasatinib; first compound 5 µM),relative viability (GSK-J4 + Dasatinib; first compound 15.81 µM),relative viability (GSK-J4 + Dasatinib; first compound 50 µM)
NCI-H661,0.896,0.852,0.791,0.589,0.583,0.98,1.03,0.97,0.982,0.764,0.588,0.519,0.572,0.555,0.47,0.862,0.755,0.636,0.641,0.649
NCI-H1975,0.383,0.354,,0.368,0.413,0.915,0.886,1.04,0.977,0.362,0.315,0.351,0.29,0.348,0.306,0.335,0.361,0.253,0.267,0.284
BEN,0.898,0.719,,0.857,0.735,,0.447,0.587,0.715,0.698,,1,1.05,0.971,1.04,0.398,0.362,,0.304,0.284
NCI-H1437,0.537,0.328,0.435,0.504,0.209,1.24,1.31,1.26,1.35,1.26,0.445,0.48,0.511,0.489,0.361,0.426,0.438,0.353,0.307,0.126
NCI-H1666,0.776,,0.84,0.66,0.495,0.964,0.994,1.02,1.05,0.839,0.848,0.875,0.851,0.887,0.761,0.774,0.879,0.526,0.802,0.536
NCI-H2085,0.949,0.927,0.857,1.09,1,0.898,1,0.977,1,0.868,0.495,0.57,0.506,1.03,0.403,0.288,0.273,0.388,0.223,0.377
LXF-289,0.952,0.866,1,0.994,1.02,0.905,0.989,0.952,0.978,0.914,0.629,0.688,0.633,0.651,0.633,0.21,0.181,0.0979,0.121,0.177
NCI-H322M,1.3,1.03,1.67,1.11,1.02,0.893,0.943,0.837,0.738,0.642,0.555,0.45,0.435,0.537,0.527,0.269,0.19,0.237,0.23,0.278
LU99A,1.07,0.777,0.777,1.21,0.632,0.699,0.87,0.782,0.849,0.869,,0.501,0.567,0.68,0.579,0.441,0.582,,0.457,0.374
NCI-H650,0.76,0.525,0.495,0.663,0.663,0.812,0.996,0.961,1.03,1.18,0.899,0.959,0.959,0.994,1.09,0.512,0.507,0.277,0.406,0.324
PC-14,0.719,0.91,0.973,0.759,0.8,0.891,0.9,0.969,1.02,1.02,0.728,0.821,0.818,0.796,0.694,0.252,0.271,0.204,0.285,0.255
HARA,1.1,1,,1.09,1.08,0.823,0.858,0.895,0.895,0.197,0.708,0.491,0.634,0.858,0.623,0.267,,,0.24,0.258
NCI-H1650,0.17,0.164,0.219,0.174,0.232,1.29,1.49,0.879,1,0.604,0.594,0.546,0.602,0.492,0.414,0.34,0.261,0.372,0.283,0.314
CAL-12T,1.06,0.834,0.785,1.01,0.941,1.08,1.12,1.04,0.98,0.788,0.46,0.304,0.321,0.313,0.314,0.431,0.477,0.465,0.405,0.335
NCI-H2405,0.992,0.724,,0.968,1.04,1.02,1.03,1.13,1.1,1.09,0.731,0.537,0.666,0.663,0.676,0.231,0.327,,0.212,0.186
201T,1.03,1.08,1.05,1.14,1.09,0.945,1.02,1.08,1.13,1.06,0.718,0.728,0.73,0.677,0.685,0.576,0.6,0.639,0.391,0.348
